Results from the supplement of paper PMC10307832.

Legend:
Assay in all cases: relative viability (nuclei count vs DMSO), 5 days (fraction); higher = more cells survive
Ibrutinib + Vorinostat = compound: C=CC(=O)N1CCC[C@@H](n2nc(-c3ccc(Oc4ccccc4)cc3)c3c(N)ncnc32)C1 [Ibrutinib] + O=C(CCCCCCC(=O)Nc1ccccc1)NO [Vorinostat] (partner 1 µM)
Method in brief: (§1)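 Nuclei were stained with Hoechst during a one-step fixation (final 0.05% Triton X-100, 1% formaldehyde, 1 ug/ml Hoechst) carried out 5 days after dosing, then counted on 4× images. The cells, lung cancer lines in 1536-well plates, had been dosed by pin tool the day after seeding with one drug alone or a fixed anchor-drug dose plus five library-drug doses (not always all listed) in √10 steps. Relative viability is the nuclei count in treated wells divided by that in vehicle wells, and each value is the median of duplicate plates.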

PAC-1 + Olaparib = compound: C=CCc1cccc(/C=N/NC(=O)CN2CCN(Cc3ccccc3)CC2)c1O [PAC-1] + O=C(c1cc(Cc2n[nH]c(=O)c3ccccc23)ccc1F)N1CCN(C(=O)C2CC2)CC1 [Olaparib] (partner 8 µM)
Method in brief: as §1

PAC-1 + Vorinostat = compound: C=CCc1cccc(/C=N/NC(=O)CN2CCN(Cc3ccccc3)CC2)c1O [PAC-1] + O=C(CCCCCCC(=O)Nc1ccccc1)NO [Vorinostat] (partner 1 µM)
Method in brief: as §1

BMX-IN-1 + Vorinostat = compound: C=CC(=O)Nc1cc(-n2c(=O)ccc3cnc4ccc(-c5ccc(NS(C)(=O)=O)cc5)cc4c32)ccc1C [BMX-IN-1] + O=C(CCCCCCC(=O)Nc1ccccc1)NO [Vorinostat] (partner 1 µM)
Method in brief: as §1

Row | Cell Line | relative viability (Ibrutinib + Vorinostat; first compound 0.005 µM) | relative viability (Ibrutinib + Vorinostat; first compound 0.01581 µM) | relative viability (Ibrutinib + Vorinostat; first compound 0.05 µM) | relative viability (Ibrutinib + Vorinostat; first compound 0.1581 µM) | relative viability (Ibrutinib + Vorinostat; first compound 0.5 µM) | relative viability (PAC-1 + Olaparib; first compound 0.02 µM) | relative viability (PAC-1 + Olaparib; first compound 0.06325 µM) | relative viability (PAC-1 + Olaparib; first compound 0.2 µM) | relative viability (PAC-1 + Olaparib; first compound 2 µM) | relative viability (PAC-1 + Vorinostat; first compound 0.02 µM) | relative viability (PAC-1 + Vorinostat; first compound 0.06325 µM) | relative viability (PAC-1 + Vorinostat; first compound 0.2 µM) | relative viability (PAC-1 + Vorinostat; first compound 2 µM) | relative viability (BMX-IN-1 + Vorinostat; first compound 0.02 µM) | relative viability (BMX-IN-1 + Vorinostat; first compound 0.2 µM) | relative viability (BMX-IN-1 + Vorinostat; first compound 0.6325 µM) | relative viability (BMX-IN-1 + Vorinostat; first compound 2 µM)
1 | 201T | 0.94 | 0.982 | 0.969 | 0.883 | 0.889 | 0.817 | 0.859 | 0.857 | 0.818 | 0.957 | 0.949 | 1.09 | 1.05 | 1.2 | 1 | 1.05 | 1.05
2 | A549 |  |  |  |  |  | 0.344 | 0.353 | 0.285 | 0.477 |  |  |  |  |  |  |  | 
3 | A-427 | 0.883 | 0.875 | 0.887 |  | 0.867 | 0.786 | 0.776 | 0.666 | 0.711 | 0.891 | 0.889 | 0.86 | 0.8 | 0.841 | 0.897 | 0.931 | 0.856
4 | ABC-1 | 0.795 | 1.05 |  |  | 1.63 | 0.781 | 0.668 | 0.848 | 0.741 | 1.06 | 1 | 1.44 | 1.09 | 1.34 | 1.6 | 1.39 | 1.21
5 | BEN | 0.513 | 0.609 | 0.599 | 0.538 | 0.501 | 1.14 | 1.05 | 0.885 | 0.872 | 0.558 | 0.58 | 0.552 | 0.601 | 0.621 | 0.517 | 0.585 | 0.535
6 | CAL-12T | 0.617 | 0.623 | 0.464 | 0.841 | 0.621 | 0.719 | 0.701 | 0.72 | 0.695 | 0.89 | 0.793 | 0.688 | 0.712 | 1.11 | 0.951 | 0.756 | 0.812
7 | COR-L23 | 0.326 | 0.51 | 0.522 | 0.477 | 0.566 | 0.308 | 0.334 |  | 0.379 | 0.415 | 0.429 |  | 0.364 | 0.448 | 0.524 | 0.635 | 0.421
8 | COR-L 105 | 0.709 | 0.659 | 0.526 | 0.833 | 0.388 | 0.753 | 0.723 | 0.631 | 0.789 | 1.08 | 0.817 | 0.817 | 0.801 | 0.943 | 0.886 | 0.996 | 0.716
9 | Calu-6 |  |  |  |  |  | 0.546 | 0.585 |  | 0.61 |  |  |  |  |  |  |  | 
10 | ChaGo-K-1 | 0.752 | 0.766 | 0.688 | 0.708 | 0.75 | 0.419 | 0.412 | 0.416 | 0.404 | 0.754 | 0.773 | 0.65 | 0.829 | 0.91 | 0.984 | 0.835 | 0.768
11 | EBC-1 |  |  |  |  |  | 0.551 | 0.713 | 0.713 | 0.649 |  |  |  |  |  |  |  | 
12 | EKVX | 0.811 | 0.549 | 0.633 | 0.657 | 0.365 | 0.987 | 0.847 | 0.751 | 0.764 | 0.768 | 0.776 | 0.793 | 0.69 | 0.668 | 0.653 | 0.957 | 0.698
13 | EMC-BAC-2 | 0.412 | 0.525 |  |  | 0.453 | 0.523 | 0.481 | 0.488 | 0.504 | 0.414 | 0.531 | 0.774 | 0.478 | 0.497 | 0.58 | 0.414 | 0.45
14 | EPLC-272H | 0.248 | 0.4 | 0.31 | 0.597 | 0.401 | 0.763 | 0.817 | 0.606 | 0.567 | 0.457 | 0.3 | 0.309 | 0.225 | 0.351 | 0.288 | 0.417 | 0.383
15 | H3255 | 0.889 | 0.725 |  | 0.764 | 0.163 | 0.64 | 0.579 | 0.536 | 0.515 | 0.923 | 0.762 | 0.87 | 0.593 | 0.787 | 0.812 | 0.902 | 0.76
16 | HARA | 0.606 | 0.482 | 0.663 | 0.64 | 0.553 | 0.769 | 0.65 | 0.813 | 1.16 |  | 0.56 | 0.529 | 0.526 | 0.507 | 0.549 | 0.446 | 0.506
17 | HCC-15 | 0.911 | 0.873 | 0.826 | 0.897 | 0.796 | 0.644 | 0.775 | 0.69 | 0.771 | 0.782 | 0.861 | 0.769 | 0.825 | 0.833 | 0.93 | 0.86 | 0.869
18 | HCC-44 | 1.21 |  | 1.2 | 1.2 | 1.15 | 1.05 | 0.906 | 0.963 | 0.986 | 1.11 | 1.05 | 1.03 | 1.09 | 1.16 | 1.14 | 1.19 | 1.12
19 | HCC-78 |  | 0.403 | 0.405 | 0.446 | 0.388 | 0.8 | 0.893 | 0.874 | 0.827 | 0.379 | 0.416 | 0.435 | 0.431 | 0.383 | 0.438 | 0.431 | 0.41
20 | HCC-366 | 0.396 | 0.387 | 0.306 | 0.443 | 0.404 | 0.314 | 0.411 | 0.306 | 0.378 | 0.396 | 0.339 | 0.258 | 0.449 | 0.791 | 0.342 | 0.373 | 0.33
21 | HCC-827 | 0.916 | 0.943 | 1.06 | 0.875 | 0.861 | 0.65 | 0.696 | 0.6 | 0.646 | 0.903 | 0.857 | 0.752 | 0.841 | 0.485 | 0.872 | 1.11 | 0.798
22 | HOP-62 | 0.529 | 0.701 | 0.557 | 0.778 | 0.71 | 0.408 | 0.273 | 0.438 | 0.502 | 0.596 | 0.518 | 0.473 | 0.655 | 0.742 | 0.755 | 0.613 | 0.559
